For test [1], the target named is NOX1 (Homo sapiens, UniProt Q9Y5S8). Nature of the test: luminol/HRP chemiluminescence, intact transfected HEK293 cells. The format is cell-based.
Test [2] addresses T1, NOX4 (Homo sapiens, UniProt Q9NPH5).
T1 sequence (Q9NPH5 1-578): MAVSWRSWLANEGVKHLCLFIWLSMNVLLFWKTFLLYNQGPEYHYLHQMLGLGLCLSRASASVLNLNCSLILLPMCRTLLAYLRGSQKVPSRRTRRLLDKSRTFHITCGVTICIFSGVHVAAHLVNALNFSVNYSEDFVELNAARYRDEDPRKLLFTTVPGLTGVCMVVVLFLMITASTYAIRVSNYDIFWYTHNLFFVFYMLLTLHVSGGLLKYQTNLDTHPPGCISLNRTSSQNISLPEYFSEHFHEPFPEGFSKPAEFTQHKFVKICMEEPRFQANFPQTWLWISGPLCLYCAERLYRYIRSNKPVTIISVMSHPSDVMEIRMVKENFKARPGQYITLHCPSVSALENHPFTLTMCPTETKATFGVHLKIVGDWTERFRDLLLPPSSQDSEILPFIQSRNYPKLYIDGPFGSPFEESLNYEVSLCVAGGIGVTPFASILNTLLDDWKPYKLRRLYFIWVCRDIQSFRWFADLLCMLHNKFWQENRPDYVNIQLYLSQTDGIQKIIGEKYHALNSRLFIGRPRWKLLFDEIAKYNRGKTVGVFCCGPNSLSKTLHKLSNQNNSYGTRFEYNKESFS
T1 sequence (P13498 2-195 partner): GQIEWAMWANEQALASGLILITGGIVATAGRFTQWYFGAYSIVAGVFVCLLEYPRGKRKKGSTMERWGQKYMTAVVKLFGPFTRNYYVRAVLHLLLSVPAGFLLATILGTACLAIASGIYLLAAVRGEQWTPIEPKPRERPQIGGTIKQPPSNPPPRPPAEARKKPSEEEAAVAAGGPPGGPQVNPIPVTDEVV
The test can be described thus: Amplex Red/HRP H2O2 fluorescence, intact transfected HEK293 cells. Type of test: cell-based.

The IC50 is the concentration that gives 50% inhibition. A low value points to higher potency.

Sequence of NOX1 (Q9Y5S8 whole entry, one chain of several): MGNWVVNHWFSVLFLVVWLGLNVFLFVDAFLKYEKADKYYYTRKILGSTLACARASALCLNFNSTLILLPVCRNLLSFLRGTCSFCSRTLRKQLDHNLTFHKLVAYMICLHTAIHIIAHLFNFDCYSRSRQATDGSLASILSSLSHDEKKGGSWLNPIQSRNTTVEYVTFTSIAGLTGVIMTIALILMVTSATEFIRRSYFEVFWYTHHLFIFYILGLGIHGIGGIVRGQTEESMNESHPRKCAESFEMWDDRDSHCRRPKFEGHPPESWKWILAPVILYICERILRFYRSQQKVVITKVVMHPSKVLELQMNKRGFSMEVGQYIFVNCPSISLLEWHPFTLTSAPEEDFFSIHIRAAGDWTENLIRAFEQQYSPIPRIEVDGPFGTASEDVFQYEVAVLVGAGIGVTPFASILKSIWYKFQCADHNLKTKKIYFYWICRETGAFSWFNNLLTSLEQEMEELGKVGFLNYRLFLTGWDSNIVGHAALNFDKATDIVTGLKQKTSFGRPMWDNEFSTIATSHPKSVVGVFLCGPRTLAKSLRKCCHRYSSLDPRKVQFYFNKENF
Sequence of NOX1 (Q8NFA2 whole entry partner, one chain of several): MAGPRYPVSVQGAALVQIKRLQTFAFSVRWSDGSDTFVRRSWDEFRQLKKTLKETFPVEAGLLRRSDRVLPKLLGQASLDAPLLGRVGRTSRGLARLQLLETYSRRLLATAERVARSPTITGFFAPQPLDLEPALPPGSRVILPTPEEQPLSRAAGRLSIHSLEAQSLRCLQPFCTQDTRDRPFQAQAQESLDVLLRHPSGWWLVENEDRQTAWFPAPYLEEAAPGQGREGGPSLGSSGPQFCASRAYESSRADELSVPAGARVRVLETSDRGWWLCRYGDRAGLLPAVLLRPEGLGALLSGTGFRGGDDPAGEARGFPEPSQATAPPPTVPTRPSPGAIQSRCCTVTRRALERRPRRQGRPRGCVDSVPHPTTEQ
Sequence of NOX1 (Q86UR1 whole entry partner, one chain of several): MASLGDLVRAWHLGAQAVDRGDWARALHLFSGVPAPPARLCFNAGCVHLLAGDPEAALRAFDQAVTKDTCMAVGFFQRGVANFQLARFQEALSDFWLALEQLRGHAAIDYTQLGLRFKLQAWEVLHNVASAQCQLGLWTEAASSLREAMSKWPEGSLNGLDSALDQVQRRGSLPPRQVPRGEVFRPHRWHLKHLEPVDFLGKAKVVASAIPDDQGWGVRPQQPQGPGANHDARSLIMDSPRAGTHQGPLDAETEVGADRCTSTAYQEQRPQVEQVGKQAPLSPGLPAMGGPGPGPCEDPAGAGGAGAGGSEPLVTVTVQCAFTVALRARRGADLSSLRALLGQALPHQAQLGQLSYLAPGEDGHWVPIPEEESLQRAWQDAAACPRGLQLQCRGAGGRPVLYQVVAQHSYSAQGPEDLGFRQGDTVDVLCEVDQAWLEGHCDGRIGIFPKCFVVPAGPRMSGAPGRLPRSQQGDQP

Consider `c1ccc2c(c1)Nc1nc3ccccc3nc1N2` [ML090, 5,12-Dihydroquinoxalino(2,3-B)quinoxaline], for which the results for the IC50 in test [1] and in test [2] were 25.1 nM and 20.4 nM, respectively.

The record behind these values is article doi:10.1101/382226v2 (biorxiv, 2019).
